This is an account of results in ChEMBL document CHEMBL1201862, “PubChem BioAssay data set” (2004).

Calls of active or inactive are those of the source.

The target of assay [1] is T1, Disintegrin and metalloproteinase domain-containing protein 17 (Homo sapiens, UniProt P78536). Put plainly: exosite inhibitors of ADAM17, dose response, biochemical (AID 743260).
The target of assay [2] is T2, Calpain-2 catalytic subunit (Sus scrofa, UniProt P43367).
T2 sequence (P43367 whole entry): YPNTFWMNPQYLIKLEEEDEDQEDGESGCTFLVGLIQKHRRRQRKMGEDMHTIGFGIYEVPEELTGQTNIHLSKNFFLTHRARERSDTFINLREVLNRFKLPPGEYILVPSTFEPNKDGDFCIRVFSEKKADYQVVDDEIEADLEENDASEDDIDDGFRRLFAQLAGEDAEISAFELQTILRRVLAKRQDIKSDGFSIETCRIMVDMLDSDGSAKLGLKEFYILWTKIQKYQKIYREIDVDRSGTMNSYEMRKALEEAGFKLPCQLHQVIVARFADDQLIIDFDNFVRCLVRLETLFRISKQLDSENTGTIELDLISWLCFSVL
Put plainly: pig calpain II inhibitor potency, dose response, biochemical, fluorogenic peptide substrate (AID 1420). Format: functional.

Assay [3] in a line: ADAM10 protease inhibitors, dose response, selectivity assay for ADAM17 exosite inhibitor project, biochemical, FRET peptide substrate, recombinant human ADAM10 (AID 743259).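 Further: ADAM10 enzyme cleaving a FRET peptide substrate.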
The next assay deals with Caspase-6 (Homo sapiens, UniProt P55212). Put plainly: human caspase-6 inhibitors, dose response, biochemical, VEID-R110 fluorescence, cherry-pick (AID 720632).
The target of assay [4] is T3, Methionyl-tRNA synthetase, putative (Trypanosoma brucei brucei, UniProt Q38C91).
T3 sequence (Q38C91 whole entry): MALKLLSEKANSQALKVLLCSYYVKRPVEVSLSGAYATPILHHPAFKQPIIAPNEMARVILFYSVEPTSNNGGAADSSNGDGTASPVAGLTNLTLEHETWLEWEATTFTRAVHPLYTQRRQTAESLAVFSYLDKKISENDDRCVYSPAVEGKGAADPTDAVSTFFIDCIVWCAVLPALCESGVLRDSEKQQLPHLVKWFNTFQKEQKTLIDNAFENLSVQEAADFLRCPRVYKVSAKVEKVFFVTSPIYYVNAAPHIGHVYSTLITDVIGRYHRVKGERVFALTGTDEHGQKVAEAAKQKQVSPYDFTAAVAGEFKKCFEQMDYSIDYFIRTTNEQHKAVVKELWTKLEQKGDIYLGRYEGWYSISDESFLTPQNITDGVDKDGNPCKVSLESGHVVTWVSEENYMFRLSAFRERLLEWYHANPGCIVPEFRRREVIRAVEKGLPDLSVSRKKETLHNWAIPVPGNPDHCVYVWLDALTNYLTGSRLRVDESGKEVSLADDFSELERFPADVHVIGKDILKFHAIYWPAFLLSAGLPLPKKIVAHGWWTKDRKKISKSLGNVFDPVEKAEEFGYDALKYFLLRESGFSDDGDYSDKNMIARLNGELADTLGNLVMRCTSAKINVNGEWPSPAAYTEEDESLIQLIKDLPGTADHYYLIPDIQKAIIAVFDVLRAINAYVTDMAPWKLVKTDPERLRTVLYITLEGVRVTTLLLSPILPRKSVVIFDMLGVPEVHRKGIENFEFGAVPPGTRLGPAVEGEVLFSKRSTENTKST
It counts as functional, Trypanosoma brucei brucei strain 927/4 GUTat10.1.

Assay [5] addresses T3, Methionyl-tRNA synthetase, putative. It counts as functional, Trypanosoma brucei brucei strain 927/4 GUTat10.1. The source holds these as a separate data set.
A short description of assay [6]: Late stage counterscreen for inhibitors of Trypanosoma brucei methionyl tRNA synthetase (MetRS): Luminescence-based cell-based high throughput dose response assay to identify compounds that are cytotoxic to Jurkat human T lymphocyte cells. It counts as functional. (Counterscreens check selectivity or assay interference.)
A short description of assay [7]: Counterscreen for inhibitors of Trypanosoma brucei methionyl tRNA synthetase (MetRS): Luminescence-based cell-based high throughput dose response assay to identify compounds that are cytotoxic to Jurkat human T lymphocyte cells. It counts as functional.
A further assay has as its system H4. Put plainly: Luminescence Cell-Based Dose Response HTS to Identify Activators of 5'UTR Stem-Loop Driven Prion Protein mRNA Translation in H4 Neuroglioblastoma Cells. [Related pubchem assays: 1829 (Project Summary), 1814 (Primary HTS)]. It counts as functional. The conditions noted are these: Homo sapiens.
A short description of assay [8]: HepG2 cell cytotoxicity, dose response, cytotoxicity control for Shn3 inhibitor project, CellTiter-Glo, cherry-picked (AID 624134). Format: functional, cell-based.
Assay [9] can be described thus: control 3'UTR Renilla luciferase suppression, dose response, counter-screen for Shn3 inhibitor project, cell-based, Clone20-Shn3RL, cherry-picked (AID 624133). Format: functional.
Assay [10] can be described thus: Luminescence Cell-Based Dose Confirmation HTS to Identify Activators of 5'UTR Stem-Loop Driven Alpha-Synuclein mRNA Translation in H4 Neuroglioblastoma Cells. [Related pubchem assays: 1829 (Project Summary), 1814 (Primary HTS)]. Format: functional.
For assay [11], the target named is Matrix metalloproteinase-14 (Homo sapiens, UniProt P50281). Kind of assay: Dose Response confirmation of uHTS hits for a small molecule inhibitors of MT1-MMP activation in a fluorescence assay set 2. Format: functional.
A short description of assay [12]: Luminescence Cell-Based Dose Response HTS to Identify Activators of Luciferase Translation or Activity in H4 […] Cells. [Related pubchem assays: 1829 (Project Summary), 1814 (Primary HTS)]. Format: functional.
A short description of assay [13]: Shn3 3'UTR reporter inhibitors, dose response, cell-based, Clone20 osteoblasts, firefly luciferase, cherry-picked (AID 624132).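 Further: firefly luciferase luminescence from reporter carrying the Shn3 3'UTR in osteoblasts.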 Format: functional.
Assay [14] in a line: miR-122 activators in hepatoma reporter cells, dose response, cell-based, Huh7 psiCHECK-miR122, Renilla luciferase, cherry-picked (AID 651956).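 Further: huh7 hepatoma cells stably carrying a psiCHECK-2 miR-122 sensor plasmid; renilla luciferase signal reporting endogenous miR-122 activity after 48 h compound exposure.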 Format: functional.
A short description of assay [15]: HEK293T cytotoxicity, dose response, cytotoxicity control for miR-122 modulator project, cell-based, inhibitor set, cherry-pick, set 2 (AID 720697). It counts as functional.
Assay [16] is described as follows: HEK293T cytotoxicity, dose response, cytotoxicity control for miR-122 modulator project, cell-based, activator set, cherry-pick (AID 720690).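 Further: HEK293T human cells scored for general mammalian cytotoxicity.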 It counts as functional.
In assay [17] the target is T1, Disintegrin and metalloproteinase domain-containing protein 17. Kind of assay: ADAM17 protease inhibitors, dose response, counter-screen for ADAM10 exosite inhibitor project, biochemical, quenched FRET substrate (AID 743253).
The nature of assay [18]: ADAM10 inhibitors, peptide cleavage, dose response, biochemical, QFRET (AID 743254).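 Further: ADAM10 enzyme with the DM2 quenched FRET peptide as substrate; EDANS fluorescence gain as the protease cuts the substrate; inhibitor potency against ADAM10 proteolytic activity.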
The target of the next assay is fMet-Leu-Phe receptor (Homo sapiens, UniProt P21462). Put plainly: FPR ligands, dose response (AID 519). It counts as functional.
In assay [19] the target is T4, Rac GTPase-activating protein 1 (Homo sapiens, UniProt Q9H0H5).
T4 sequence (Q9H0H5 whole entry): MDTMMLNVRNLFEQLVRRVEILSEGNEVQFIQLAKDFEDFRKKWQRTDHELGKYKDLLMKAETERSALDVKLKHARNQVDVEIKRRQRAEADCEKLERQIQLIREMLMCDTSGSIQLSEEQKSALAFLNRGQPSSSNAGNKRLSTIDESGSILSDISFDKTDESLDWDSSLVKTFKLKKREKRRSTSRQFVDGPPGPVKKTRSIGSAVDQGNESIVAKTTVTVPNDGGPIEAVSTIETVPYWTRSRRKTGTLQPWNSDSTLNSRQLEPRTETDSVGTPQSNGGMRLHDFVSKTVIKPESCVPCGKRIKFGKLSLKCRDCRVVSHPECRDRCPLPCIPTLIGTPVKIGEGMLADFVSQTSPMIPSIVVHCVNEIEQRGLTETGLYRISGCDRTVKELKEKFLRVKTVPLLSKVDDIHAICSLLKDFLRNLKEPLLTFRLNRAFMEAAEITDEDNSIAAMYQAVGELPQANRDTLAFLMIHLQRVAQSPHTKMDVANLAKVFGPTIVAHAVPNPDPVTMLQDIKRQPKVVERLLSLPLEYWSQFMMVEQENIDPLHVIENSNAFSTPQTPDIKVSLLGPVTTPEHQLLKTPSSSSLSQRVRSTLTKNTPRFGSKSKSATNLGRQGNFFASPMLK
Kind of assay: MgcRacGAP GTPase-activating activity inhibitors, confirmation, biochemical, ADP Hunter fluorescence, primary and confirmatory (AID 624330). Format: functional.

The target in another assay is Beta Lactamase (Pseudomonas aeruginosa, UniProt Q932Y6). Kind of assay: beta-lactamase reporter inhibitor potency, dose response, artefact control for TLR9-MyD88 binding inhibitor project, BLA reporter cells, FRET fluorescence (AID 588341).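 Further: cell based assay in CHO-K1 cells stably expressing beta-lactamase.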 Format: cell-based.
Assay [20] in a line: inhibitors of PGC1a acetylation in cells, dose response, cell-based, cherry-picked samples (AID 720514).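 Further: potency may reflect raised or lowered acetylation signal.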 It counts as functional.
Assay [21] is described as follows: HeLa cell cytotoxicity, dose response, cytotoxicity control for MgcRacGAP inhibitor project (AID 624300). It counts as functional.
Assay [22] is described as follows: Late stage assay provider counterscreen for TLR9 inhibitors: absorbance-based cell-based MTT cytotoxicity assay. It counts as functional.
For another assay, the system named is CHO. Put plainly: cytotoxicity in TLR9-MyD88 CHO cells, dose response, cytotoxicity control for TLR9-MyD88 binding inhibitor project, cell-based, luminescence (AID 588339).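 Further: CHO cells stably coexpressing TLR9 and MyD88 fusions from primary screen; compound exposure lasted 48 hours before viability readout.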 Format: functional, hamster. Conditions: Cricetulus griseus.

T1 sequence (P78536 whole entry, the tested form may be a part): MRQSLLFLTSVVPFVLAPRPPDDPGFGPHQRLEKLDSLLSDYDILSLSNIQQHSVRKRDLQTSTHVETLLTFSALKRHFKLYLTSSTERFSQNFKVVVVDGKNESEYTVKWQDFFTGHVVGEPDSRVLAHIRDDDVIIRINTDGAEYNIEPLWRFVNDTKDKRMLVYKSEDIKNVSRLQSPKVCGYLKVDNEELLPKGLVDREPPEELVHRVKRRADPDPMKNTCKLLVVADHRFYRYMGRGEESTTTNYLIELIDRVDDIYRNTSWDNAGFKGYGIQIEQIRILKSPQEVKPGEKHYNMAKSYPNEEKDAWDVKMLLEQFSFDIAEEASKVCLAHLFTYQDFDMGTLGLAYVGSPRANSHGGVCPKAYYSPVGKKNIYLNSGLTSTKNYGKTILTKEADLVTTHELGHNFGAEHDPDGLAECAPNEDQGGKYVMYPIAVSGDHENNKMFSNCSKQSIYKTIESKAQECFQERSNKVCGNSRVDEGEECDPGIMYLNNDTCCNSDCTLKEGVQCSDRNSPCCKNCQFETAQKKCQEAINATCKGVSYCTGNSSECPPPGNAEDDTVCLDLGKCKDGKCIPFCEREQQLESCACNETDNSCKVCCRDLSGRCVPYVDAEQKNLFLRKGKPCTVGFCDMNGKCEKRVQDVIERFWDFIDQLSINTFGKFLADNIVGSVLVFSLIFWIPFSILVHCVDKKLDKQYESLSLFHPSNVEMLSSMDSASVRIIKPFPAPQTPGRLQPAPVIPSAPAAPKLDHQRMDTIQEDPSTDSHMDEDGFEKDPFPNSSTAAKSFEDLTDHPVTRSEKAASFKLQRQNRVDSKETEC
Sequence of Caspase-6 (P55212 24-179 limits assumed): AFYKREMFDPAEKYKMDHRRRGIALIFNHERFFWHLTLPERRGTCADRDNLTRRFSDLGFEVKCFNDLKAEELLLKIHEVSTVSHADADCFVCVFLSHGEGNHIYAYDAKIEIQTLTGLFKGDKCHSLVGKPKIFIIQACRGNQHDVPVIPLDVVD
Sequence of Caspase-6 (P55212 194-293 limits assumed): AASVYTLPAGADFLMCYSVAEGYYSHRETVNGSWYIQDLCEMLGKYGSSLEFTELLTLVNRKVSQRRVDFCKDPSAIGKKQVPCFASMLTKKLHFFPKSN
Sequence of fMet-Leu-Phe receptor (P21462 whole entry): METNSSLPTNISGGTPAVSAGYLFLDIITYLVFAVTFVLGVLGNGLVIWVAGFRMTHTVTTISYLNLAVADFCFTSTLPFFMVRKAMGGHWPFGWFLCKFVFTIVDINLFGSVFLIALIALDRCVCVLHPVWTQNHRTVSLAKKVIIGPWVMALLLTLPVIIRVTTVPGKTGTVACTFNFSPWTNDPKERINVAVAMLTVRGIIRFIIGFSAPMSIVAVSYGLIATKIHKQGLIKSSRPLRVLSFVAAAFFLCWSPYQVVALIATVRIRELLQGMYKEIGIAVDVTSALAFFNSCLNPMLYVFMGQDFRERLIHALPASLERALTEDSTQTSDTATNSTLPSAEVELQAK
Sequence of Beta Lactamase (Q932Y6 whole entry): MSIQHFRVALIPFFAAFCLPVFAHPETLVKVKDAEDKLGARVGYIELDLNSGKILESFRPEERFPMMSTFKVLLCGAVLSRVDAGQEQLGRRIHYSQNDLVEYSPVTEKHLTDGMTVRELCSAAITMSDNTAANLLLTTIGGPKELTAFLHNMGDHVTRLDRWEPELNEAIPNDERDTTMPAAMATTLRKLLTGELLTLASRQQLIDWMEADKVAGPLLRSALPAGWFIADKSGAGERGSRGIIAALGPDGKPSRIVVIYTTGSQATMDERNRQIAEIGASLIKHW

Regarding `Nc1cc(S(=O)(=O)N2CCCCC2)ccc1Oc1ccc(Cl)cc1`, the IC50 (commonly the concentration at which inhibition is half-maximal) in [1] was > 69.5 µM (inactive); in [2] it was 5.69 µM (not active); in [3] it was > 69.5 µM (inactive).

Take `O=C(Nc1sc2c(c1C(=O)O)CCC2)C(=O)N1CCOCC1`: the AC50 (usually the concentration giving half of the maximal activity seen) at Caspase-6 was 30.7 µM (active).

`CC(C)OCCCN1CC(=O)N2C(c3cccc([N+](=O)[O-])c3)c3[nH]c4ccccc4c3C[C@H]2C1=O` (some centres not stated): the IC50 is 0.979 µM (active) in [4], 2.17 µM (active) in assay [5], > 83.3 µM (inactive) in assay [6] and 73.1 µM (inactive) in assay [7].

In the case of `CC[n+]1c(/C=C/Nc2ccccc2)sc2ccccc21`, the EC50 (with H4; in assay [10]; in assay [12]) was > 120 µM (not active) throughout. For the same compound, the AC50 in assay [8] is > 70 µM (inactive); in assay [9], 5.83 µM (active); in [13], 2.06 µM (active). Further, the IC50 in assay [11] was 23.3 µM (inactive).

Turning to `COc1ccc(OC)c(-c2cc(C3CCN(c4cc(Cl)nc(N)n4)CC3)[nH]n2)c1`, the concentration at half-maximal activity (AC50) in assay [14] is 42.9 µM (active); in assay [15] it was 18.1 µM (active); in [16], 16.7 µM (active).

Consider `Cc1cccc([C@@H]2[C@@H]3C(=O)N(Cc4ccccc4)C(=O)[C@@H]3[C@]3(Cc4ccccc4)C(=O)N(c4ccc(C(F)(F)F)cc4)C(=O)N23)c1`, for which the IC50 in [17] and in assay [18] was > 69.6 µM (inactive) each time.

For `COc1ccc2c(=O)c(-c3cnn(-c4ccccc4)c3)c(C)oc2c1`, the Ki (as a rule, a measure of affinity in units of concentration, obtained from inhibition or displacement) at fMet-Leu-Phe receptor was > 66.7 µM (inactive).

`O=C1C=CC2(C=C1)O[C@H](Cc1ccccc1)[C@@H](Cc1ccccc1)O2`: the IC50 in [19] is 49.6 µM (active); on Beta Lactamase, 21.8 µM (inactive); in the assay with CHO it was 0.57 µM (active). For the same compound, the AC50 in assay [20] is 1.05 µM (active). The CC50 (as a rule, the concentration at which the toxic effect on the cells reaches its halfway point) in assay [21] is 46.5 µM (active); in assay [22] it was 0.88 µM (active).
